Data set [1] concerns the target Type IV Phosphodiesterase (PDE IV). The data set is described as follows: Effect on enzymatic activity of type IV phosphodiesterase (PDE IV). The note with it: crude enzyme from cytoplasmic fraction of human monocyte-like cell strain U937; 3H-cAMP substrate, 30° C., 15 minutes; read-out: PDE IV Inhibitory Activity: IC50. In kind it is biochemical. How it is done:
PDE IV inhibitory activity of the compounds of the present invention was examined. […] Adv.
Effect on Enzymatic Activity of Type IV Phosphodiesterase (PDE IV)
After a test compound was added, the reaction mixture was incubated at 30° C. for 15 minutes, and then added with the substrate.

Usually IC50 stands for the concentration that gives 50% inhibition. Usually melting point stands for the temperature of the solid-liquid transition. For the molecule `COc1ccc(Cn2c(C)nc3c(C)nc(NCc4cccnn4)nc32)cc1OC1CCCC1` [compound 113], the melting point fell in the range of 164 to 166 °C. Also, the half-maximal inhibitory concentration (IC50) in data set [1] came to 24 nM.

The molecule `COc1ccc(Cn2c(C)nc3c(C)nc(OCc4ccncc4)nc32)cc1OC1CCCC1` [compound 95] returned a melting point of 125 to 126 °C. Further, the IC50 in data set [1] turned out to be 1.7 nM. Molecule `COc1ccc(Cn2cnc3ncnc(OCc4cccnc4)c32)cc1OC1CCCC1` [compound 137] had a melting point of 143 to 145 °C. Also, in data set [1], the half-inhibitory concentration (IC50) is 64 nM. The like results for `COc1ccc(Cn2cnc3cnc(OCCCc4ccncc4)nc32)cc1OC1CCOC1` (centres unmarked) [compound 55] were, in that order, 128 to 130 °C and 4.5 nM. `CCNc1nc(OCCCc2cc[n+]([O-])cc2)nc2c1ncn2Cc1ccc(OC)c(OC2CCCC2)c1` [compound 122] yielded a melting point of 85 to 88 °C. Further, the concentration for half-maximal inhibition (IC50) in data set [1] came out at 15 nM. For `CNc1nc(OCCCc2ccncc2)nc2c1ncn2Cc1ccc(OC)c(OC2CCCC2)c1` [compound 72], in that order: 138 to 140 °C and 0.75 nM.

The molecule `CCNc1nc(OCCCc2ccncc2)nc2c1ncn2Cc1ccc(OC)c(OC2CCCC2)c1` [compound 83] yielded a melting point of 127 to 128 °C. The half-maximal inhibitory concentration (IC50) in data set [1] amounted to 0.69 nM. Molecule `COc1ccc(Cn2c(C)nc3cnc(NCc4ccc(OCC(F)(F)F)nc4)nc32)cc1OC1CCCC1` [compound 77] registered a melting point of 125 to 127 °C. The IC50 in data set [1] was determined as 0.83 nM. `COc1ccc(Cn2cnc3c(C)nc(NCc4ccncc4)nc32)cc1OC1CCCC1` [compound 84] gave a melting point of 137 to 138 °C. Moreover, in data set [1], the IC50 worked out at 1.9 nM. For `COc1ccc(Cn2c(C)nc3cnc(OCc4cccnc4)nc32)cc1OC1CCCC1` [compound 36], the half-maximal inhibitory concentration (IC50) in data set [1] worked out at 2.6 nM. `COc1ccc(Cn2cnc3cnc(NCc4cccs4)nc32)cc1OC1CCCC1` [compound 41] displayed a melting point of 141 to 142 °C. Moreover, the IC50 in data set [1] was 0.47 nM. For `CCNc1nc(OCc2cccnn2)nc2c1ncn2Cc1ccc(OC)c(OC2CCCC2)c1` [compound 96, 9-[(3-cyclopentyloxy-4-methoxy)benzyl]-6-ethylamino-2-[(3-pyridazinyl)methyloxy]purine], in that order: 121 to 122 °C and 3.8 nM. Turning to `COc1ccc(Cn2c(C)nc3cnc(OCCCc4ccncc4)nc32)cc1OC1CCCC1` [compound 56], the melting point was in the range of 115 to 117 °C. Also, the concentration for half-maximal inhibition (IC50) in data set [1] came to 1.3 nM.

`COc1ccc(Cn2c(C)nc3c(C)nc(OCc4cc(C)nn4C)nc32)cc1OC1CCCC1` [compound 112] displayed a melting point of 112 to 123 °C. Besides, the IC50 in data set [1] was found to be 0.22 nM. For `COc1ccc(Cn2cnc3c(N(C)C)nc(OCc4ccoc4)nc32)cc1OC1CCCC1` [compound 88], in that order: 92 to 93 °C and 0.2 nM. Turning to `COc1ccc(Cn2c(C)nc3cnc(NCc4cccnc4)nc32)cc1OC1CCCC1` [compound 37], the half-maximal inhibitory concentration (IC50) in data set [1] was determined as 1 nM. As to `COc1ccc(Cn2cnc3c(N(C)C)nc(NCc4cccnc4)nc32)cc1OC1CCCC1` [compound 104], the melting point was in the range of 112 to 114 °C. Moreover, in data set [1], the concentration for half-maximal inhibition (IC50) turned out to be 1.1 nM.

Turning to `COc1ccc(Cn2c(C)nc3c(C)nc(SCc4cccnc4)nc32)cc1OC1CCCC1` [compound 119], the melting point lay in the range of 116 to 117 °C. Besides, the IC50 in data set [1] was 0.64 nM. The molecule `CCNc1nc(Cl)nc2c1ncn2Cc1ccc(OC)c(OC2CCCC2)c1` [compound 134] gave a melting point of 129 to 131 °C. In addition, the half-maximal inhibitory concentration (IC50) in data set [1] came out at 41 nM. As to `COc1ccc(Cn2cnc3ncnc(Oc4cccnc4)c32)cc1OC1CCCC1` [compound 139], the melting point fell in the range of 134 to 135 °C. In addition, the IC50 in data set [1] turned out to be 54 nM. In turn, `COc1ccc(Cn2cnc3c(N(C)C)nc(OCCCc4ccncc4)nc32)cc1OC1CCCC1` [compound 82] returned a melting point of 78 to 80 °C. Also, the IC50 in data set [1] is 0.82 nM. Turning to `CCCNc1nc(OCCCc2ccncc2)nc2c1ncn2Cc1ccc(OC)c(OC2CCCC2)c1` [compound 93], the melting point was in the range of 130 to 131 °C. Moreover, the 50% inhibitory concentration (IC50) in data set [1] is 0.44 nM. For the molecule `COc1ccc(Cn2cnc3c(OCc4cccnc4)ncnc32)cc1OC1CCCC1` [compound 2], the IC50 in data set [1] is 8.9 nM. Turning to `COc1ccc(Cn2cnc3c(N)nc(OCCCc4ccncc4)nc32)cc1OC1CCCC1` [compound 66], the melting point lay in the range of 152 to 153 °C. The concentration for half-maximal inhibition (IC50) in data set [1] stood at 1.4 nM. The like results for `COc1ccc(Cn2c(C)nc3c(C)nc(OCc4cc[n+]([O-])cc4)nc32)cc1OC1CCCC1` [compound 102] were, in that order, 157 to 158 °C and 15 nM.

The values above are taken from patent publication US6734187B1, “Purine derivatives and medicaments comprising the same as active ingredient” (Mitsubishi Chemical Corporation, priority 1997, dated 2004).
